Test results taken from US20240158418A1 (C4 Therapeutics, Inc., priority 2021, published 2024).

What was measured:
[1] = tested on: NCI-H1975 L858R-T790M NSCLC xenograft tumors; experiment: NCI-H1975 NSCLC xenograft efficacy; type: in vivo, female BALB/c nude mice
Method: For the NCI-H1975 cells, the xenograft study was conducted in female BALB/c nude mice bearing NCI-H1975 NSCLC tumors. Female nude mice were inoculated subcutaneously in the right flank with 5×10^6 tumors cells in 0.1 mL of PBS. Tumor volume was measured twice weekly in two dimensions using calipers, and volume (mm^3) was calculated using the formula: V=0.5 a×b^2 where a and b are the long and short diameters of the tumor in mm, respectively.
Body weight and MTV were measured on a 2× weekly schedule. Statistical analysis was performed using a one-way ANOVA. Data are expressed as MTV±SEM.

EGFR-L861Q = molecular target: T1, EGFR-L861Q (Homo sapiens, UniProt P00533, L861Q); experiment: KINOMEscan scanMAX, EGFR-L861Q; type: binding; settings: 100 nM
T1 construct: purchased Eurofins DiscoverX KINOMEscan scanMAX; host or cells: E. coli BL21-derived (T7 phage) or HEK-293
Method: Kinome-wide binding selectivity of CFT8919 was assessed via the KINOMEscan scanMAX assay at Eurofins DiscoverX (Freemont, CA, USA). Compound was tested at 100 nM against a diverse panel of 468 kinases. The size of circles was mapped onto the kinase phylogenetic tree utilizing DiscoverX TREEspot using <50% of % control as a cutoff.
For most assays, kinase-tagged T7 phage strains were grown in parallel in 24-well blocks in an E. coli host derived from the BL21 strain. E. coli were grown to log-phase and infected with T7 phage from a frozen stock (multiplicity of infection=0.4) and incubated with shaking at 32° C. until lysis (90-150 minutes). The lysates were centrifuged (6,000×g) and filtered (0.2 μm) to remove cell debris. The remaining kinases were produced in HEK-293 cells and subsequently tagged with DNA for qPCR detection. Streptavidin-coated magnetic beads were treated with biotinylated small molecule ligands for 30 minutes at room temperature to generate affinity resins for kinase assays. The liganded beads were blocked with excess biotin and washed with blocking buffer (SeaBlock (Pierce), 1% BSA, 0.05% Tween 20, 1 mM DTT) to remove unbound ligand and to reduce non-specific phage binding. […] Test compounds were prepared as 40× stocks in 100% DMSO and directly diluted into the assay. […] The kinase concentration in the eluates was measured by qPCR.

NCI-H1975 cells = experiment: Global proteomics (TMT), NCI-H1975; type: cell-based, human
Method: Each cell line was treated in duplicate with either DMSO or Compound 1 (final concentration 300 nM) for 6 hours in an incubator at 37° C. with 5% CO2. After 6 hour incubation, cells were harvested, washed twice with PBS, and snap frozen in liquid nitrogen. Samples were re-suspended in lysis buffer [8 M urea, 50 mM HEPS (pH 8.5), 50 mM NaCl, 1× protease inhibitor cocktail] and lysed by sonication at 4° C. with 85% amplitude in a pulse setting with 30 seconds on and 30 seconds off for a total sonication time of 5 minutes. Lysates were centrifuged at maximum speed for 10 minutes at 4° C. and the supernatant collected, reduced for 1 hour at room temperature with 5 mM TCEP, and the cysteine residues were then alkylated with 15 mM iodoacetamide (room temperature, in dark, 30 minutes). Protein content was extracted by methanol-chloroform precipitation and subsequent ice-cold acetone washes. Protein pellets were resuspended in 8 M urea, 50 mM HEPES (pH 8.5) buffer and protein concentrations were measured by BCA assay. […]
6 μL of each sample was separated by reversed phase chromatography using an EASY-Spray C18 column (2 μm particle size, 500 mm length×75 μm ID) mounted in an EASY-nLC 1200 LC pump coupled to an Orbitrap Fusion Lumos Tribid mass spectrometer. […] TMT reporter ion intensities were quantified by extracting the signal-to-noise ratio for each. […]

T1 sequence (P00533 25-1210 L861Q): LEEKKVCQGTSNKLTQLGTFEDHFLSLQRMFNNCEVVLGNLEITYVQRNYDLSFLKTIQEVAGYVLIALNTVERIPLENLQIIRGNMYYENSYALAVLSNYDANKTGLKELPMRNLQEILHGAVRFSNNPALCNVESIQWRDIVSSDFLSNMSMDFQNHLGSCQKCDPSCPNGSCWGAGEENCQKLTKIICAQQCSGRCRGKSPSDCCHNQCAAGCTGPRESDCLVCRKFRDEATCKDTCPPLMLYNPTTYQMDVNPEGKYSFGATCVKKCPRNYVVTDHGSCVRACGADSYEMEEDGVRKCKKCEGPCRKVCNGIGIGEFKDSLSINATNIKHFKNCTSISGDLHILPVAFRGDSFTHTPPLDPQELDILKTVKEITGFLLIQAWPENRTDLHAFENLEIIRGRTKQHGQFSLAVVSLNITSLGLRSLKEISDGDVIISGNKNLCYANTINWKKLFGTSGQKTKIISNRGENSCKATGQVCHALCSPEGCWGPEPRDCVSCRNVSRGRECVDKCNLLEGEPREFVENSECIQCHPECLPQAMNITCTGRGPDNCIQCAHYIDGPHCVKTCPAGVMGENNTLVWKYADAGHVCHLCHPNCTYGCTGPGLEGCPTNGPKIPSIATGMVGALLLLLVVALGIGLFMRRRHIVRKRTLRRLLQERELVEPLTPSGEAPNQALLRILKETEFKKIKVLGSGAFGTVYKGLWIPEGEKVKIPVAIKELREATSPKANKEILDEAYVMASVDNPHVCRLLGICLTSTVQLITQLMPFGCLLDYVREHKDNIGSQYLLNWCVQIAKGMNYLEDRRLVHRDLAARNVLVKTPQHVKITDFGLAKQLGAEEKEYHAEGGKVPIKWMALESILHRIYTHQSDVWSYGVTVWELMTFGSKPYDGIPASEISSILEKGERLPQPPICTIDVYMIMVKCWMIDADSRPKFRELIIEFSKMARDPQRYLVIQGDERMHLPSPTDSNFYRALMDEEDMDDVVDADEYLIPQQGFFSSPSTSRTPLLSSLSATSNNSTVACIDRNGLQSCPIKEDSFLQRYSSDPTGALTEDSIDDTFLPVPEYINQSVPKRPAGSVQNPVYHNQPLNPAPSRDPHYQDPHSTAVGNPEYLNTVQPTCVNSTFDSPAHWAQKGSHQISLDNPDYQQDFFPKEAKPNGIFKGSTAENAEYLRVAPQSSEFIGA

O=C1CC[C@H](Nc2ccc(N3CCC(O)(CC(=O)N4CC5(C4)CN(c4ccc(-c6cc(F)c7c(c6)C(=O)N(C(C(=O)Nc6nccs6)c6ncn8c6CCC8)C7)cc4)C5)CC3)c(F)c2)C(=O)N1 (stereo partly drawn) [Compound 1, 2-(6,7-dihydro-5H-pyrrolo[1,2-c]imidazol-1-yl)-2-[6-[4-[2-[2-[1-[4-[[(3S)-2,6-dioxo-3-piperidyl]amino]-2-fluoro-phenyl]-4-hydroxy-4-piperidyl]acetyl]-2,6-diazaspiro[3.3]heptan-6-yl]phenyl]-4-fluoro-1-oxo-isoindolin-2-yl]-N-thiazol-2-yl-acetamide]
efficacy on NCI-H1975 tumor volume ([1]; 20, 50 and 100 mg/kg/day PO BID, 14 days): reduced tumor volume | tumor regression ([1]; NCI-H1975 mouse xenograft model, oral): up to 90% | percent binding remaining (EGFR-L861Q): < 50% | degradation selectivity for mutant EGFR-L858R over non-EGFR proteins (NCI-H1975 cells): highly selective
